Source: PubChem BioAssay (NCI)
Values joined by “and” are separate entries in the source; they are usually repeats but may differ in a detail not shown here. Identical values can stand only once.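 Grown in 96-well plates, cells were treated for 48 hours with each compound at five concentrations. Insufficient inhibition: endpoint recorded as highest concentration tested. GI50: concentration for 50% inhibition of growth. TGI is the concentration that stops growth completely.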

What was measured:
Assay in all cases: NCI anticancer screen, dose series, 48 h
[1] = test system: OVCAR-8 ovarian
[2] = test system: RPMI-8226 leukemia
[3] = test system: MDA-MB-231 breast
[4] = test system: SNB-75 CNS
[5] = test system: HCC-2998 colon
[6] = test system: SR leukemia
[7] = test system: SK-OV-3 ovarian
[8] = test system: HCT-15 colon
[9] = test system: HT29 colon
[10] = test system: CAKI-1 renal

Row | Structure (SMILES) | GI50 [1] [µM] | TGI [1] | GI50 [2] [µM] | TGI [2] | GI50 [3] [µM] | TGI [3] | GI50 [4] [µM] | TGI [4] | GI50 [5] [µM] | TGI [5] | GI50 [6] [µM] | TGI [6] | GI50 [7] [µM] | TGI [7] | GI50 [8] [µM] | TGI [8] | GI50 [9] | TGI [9] | GI50 [10] [µM] | TGI [10]
1 | COc1cc(CSc2nc3ccc(Cl)cc3c(=O)n2Cc2ccccc2)cc(OC)c1OC | 5.18 | > 100 µM | 4.27 | > 100 µM | 5.34 | > 100 µM | 1.15 | 4.09 µM | 6.18 | > 100 µM | 0.59 | 27.6 µM | 3.23 | 17.7 µM | 1.46 | > 100 µM | 3.32 µM | > 100 µM | 3.19 | > 100 µM
2 | O=C1CN=C(c2ccc[nH]2)c2cc(Cl)ccc2N1 | > 100 | > 100 µM | 3.83 | > 100 µM | > 100 | > 100 µM | > 100 | > 100 µM | > 100 | > 100 µM | > 100 | > 100 µM | > 100 | > 100 µM | 19.1 | > 100 µM | 38.9 µM | > 100 µM | > 100 | > 100 µM
3 | CCOc1ccccc1/C=N\N=C(N/N=C/c1ccccc1OCC)N/N=C/c1ccccc1OCC | 3.01 | > 100 µM | 1.73 | > 100 µM | 1.73 | 7.52 µM | 2.2 | > 100 µM | 0.826 | > 100 µM | 3.23 | > 100 µM | 1.65 | 6.15 µM | 0.95 | > 100 µM | 2.23 µM | > 100 µM | 1.4 | > 100 µM
4 | CCOC(=O)c1ccc(N2NC(=O)/C(=C/c3ccc([N+](=O)[O-])o3)C2=O)cc1 | 27.8 | > 64.2 µM | 30.1 | > 96.5 µM | 22.5 | 52.9 µM | 27.6 | > 51.5 µM | > 41.8 | > 56.5 µM | 10.1 | 57.8 µM | > 39.4 | > 54.1 µM | 13.6 | 31.5 µM | 15.8 µM | 36.2 µM | 5.76 | 13.6 µM
5 | CCc1cc2c(c(OCC(F)(F)F)c(C(=O)NC3CCN(C(=O)CO)CC3)n2C)c(=O)n1CC(=O)c1ccccc1 | 45.5 | > 100 µM | 27.7 | > 100 µM | 54.6 | > 100 µM | > 33.9 | > 100 µM | > 78 | > 100 µM | 50.7 | > 100 µM | > 100 | > 100 µM | 52.3 | > 100 µM | 65 µM | > 100 µM | > 60.3 | > 100 µM
6 | CCCCCN(CCCCC)CCC[C@@H](C)[C@H]1CC[C@H]2[C@@H]3[C@H](OCCCN)C[C@@H]4C[C@H](OCCCN)CC[C@]4(C)[C@H]3C[C@H](OCCCN)[C@]12C | 7.39 | 22.9 µM | 1.84 | 4.71 µM | 4.41 | 19.7 µM | 7.52 | 22.8 µM | 7.98 | 24.9 µM | 2.38 | 9.28 µM | 15.9 | 34.9 µM | 15.4 | > 100 µM | 2.65 µM | 15.3 µM | 40.7 | > 100 µM
7 | CCn1nc(C2CCN(C(=O)CCO)CC2)nc1-c1cnc(N)c(-c2nnc(C(C)(C)C)o2)n1 | 38.2 | > 100 µM | 28 | > 76.7 µM | 15.1 | 68.2 µM | 0.155 | > 100 µM | 10.7 | > 100 µM | 15.5 | > 88.4 µM | 0.286 | 2.74 µM | 6.17 | > 100 µM | 0.63 µM | 22 µM | 3.35 | > 96.6 µM
8 | Cc1nnn(C)c1-c1cnc2c3ccc(C(C)(C)O)cc3n([C@H](c3ccccc3)C3CCOCC3)c2c1 | 0.0652 | 31.6 µM | < 0.01 | 27.9 µM | < 0.01 | 24.7 µM | < 0.01 | 20.3 µM | 0.0356 | 3.98 µM | < 0.01 | > 100 µM | < 0.01 | 16.4 µM | < 0.0106 | 14.6 µM | < 0.01 µM | > 42 µM | < 0.01 | 13.2 µM
9 | c1cc(OCCN2CCCC2)ccc1CNc1ccc2nc(CCC3CCCCC3)[nH]c2c1 | 2.69 | 10 µM | 1.35 | 3.64 µM | 1.61 | 3.19 µM | 1.27 | 3.31 µM | 2.03 | 4.29 µM | 0.29 | 1.03 µM | 2.15 | 4.5 µM | 1.55 | 3.7 µM | 0.535 µM | 2.23 µM | 1.79 | 3.38 µM
10 | Clc1cc(Br)ccc1-c1ccc(CNCC2CCNCC2)o1 | 2.19 | 5.15 µM | 1.86 | 4.46 µM | 1.59 | 3.42 µM | 1.26 | 2.88 µM | 1.86 | 3.45 µM | 0.444 | 2.65 µM | 1.99 | 3.86 µM | 1.86 | 4.29 µM | 1.44 µM | 3.11 µM | 1.85 | 3.58 µM
11 | COc1cc2c(cc1OC)[C@@H]1C(=O)c3ccc4c(c3O[C@@H]1CO2)C[C@H](C(C)C)O4 | 3.96 | > 69.9 µM | 0.0152 | 9.08 µM | 21.6 | > 100 µM | 4.39 | 23.8 µM | 4.09 | > 61.6 µM | 1.42 | > 23.6 µM | 14.4 | > 81.8 µM | 9.26 | > 71 µM | 15.4 µM | > 58.6 µM | 4.41 | > 47.4 µM
12 | Cc1[nH]c2ccccc2c1CO | 31 | > 100 µM | 26.9 | > 100 µM | 18.1 | 54.7 µM | 7.33 | 39.3 µM | 21.2 | 47.2 µM | 25.1 | > 100 µM | 35.1 | > 100 µM | 18.5 | 93.2 µM | 15.9 µM | 34.7 µM | 14.9 | 42.2 µM
13 | ClCc1ccccc1Cn1cnc2nc(Cl)nc(Cl)c21 | 2.54 | 8.88 µM | 0.0318 | 0.272 µM | 0.219 | 0.642 µM | 1.6 | 3.43 µM | 3.96 | 8.56 µM | 0.64 | 5.66 µM | 4.35 | 15.4 µM | 0.197 | 0.434 µM | 0.412 µM | > 100 µM | 7.16 | 18.5 µM
14 | CCCCCSc1ccc2nc(NC(=O)OCC)sc2c1 | 4.85 | > 100 µM | 1.04 | > 100 µM | 0.95 | > 100 µM | 0.41 | 20.2 µM | 4.88 | > 100 µM | 0.274 | > 100 µM | 0.535 | > 100 µM | 0.384 | > 100 µM | 0.348 µM | > 100 µM | 0.626 | > 100 µM
15 | Cc1ccc(-c2cc(C(=O)Nc3ccc(S(=O)(=O)N4CCCCC4)cc3)[nH]n2)c(O)c1 | > 100 | > 100 µM | > 100 | > 100 µM | 16.8 | > 100 µM | > 100 | > 100 µM | > 100 | > 100 µM | 22.3 | > 100 µM | > 100 | > 100 µM | > 100 | > 100 µM | > 100 µM | > 100 µM | > 100 | > 100 µM
16 | COc1ccc(OC)c(N2CC(O)=C(c3nc4ccccc4s3)C2=N)c1 | 98.7 | > 100 µM | 35.7 | > 100 µM | 20.6 | > 100 µM | 32 | > 100 µM | 32.5 | > 100 µM | 6.77 | > 100 µM | > 100 | > 100 µM | 5.22 | > 100 µM | 42.8 µM | > 100 µM | 76.6 | > 100 µM
17 | O=C1OC2(c3ccc(O)cc3Oc3cc(O)ccc32)c2cccc3cccc1c23 | 17.4 | 36.9 µM | 21.5 | 56.3 µM | 14.3 | 40.3 µM | 12.3 | 43.4 µM | 48.4 | > 100 µM | 27.5 | > 100 µM | 34 | > 100 µM | 19.2 | 52.6 µM | 21 µM | 47.4 µM | 24.6 | > 100 µM
18 | CC(=O)O[C@@H]1c2c(c3c(=O)c4cccc(O)c4c(=O)c=3c2=[N+]=[N-])[C@H](OC(C)=O)[C@@H](OC(C)=O)[C@]1(C)O | 0.117 | 0.77 µM and 0.461 µM | – | 0.361 µM and 0.394 µM | 0.335 | 1.46 µM and 1.48 µM | 0.582 | 0.851 µM and 1.69 µM | 0.358 | 0.522 µM and 1.22 µM | 0.0582 | 0.37 µM and 0.36 µM | 1.01 | 2.11 µM and 2 µM | 0.135 | 0.476 µM and 0.298 µM | 0.135 µM and 0.113 µM | 0.605 µM and 0.265 µM | 0.182 | 1.04 µM and 0.374 µM
19 | COc1cc2c(/C=C3\C(=O)N(C)c4ccccc43)c[nH]c2cc1C | 4.14 | 45.1 µM | 1.42 | > 20.1 µM | 2.05 | > 100 µM | 4.34 | > 100 µM | 1.79 | > 68.3 µM | 2.07 | 14.2 µM | 8.35 | > 100 µM | 0.33 | > 100 µM | 0.36 µM | – | 2.01 | 51.3 µM
20 | COc1cc(OC)c(C(=O)/C=C/c2ccc(C#N)cc2)c(OC)c1 | 1.98 | > 50 µM | 1.29 | 4.92 µM | 2.31 | 9.32 µM | 1.27 | 6.62 µM | 1.9 | 6.51 µM | 0.813 | > 50 µM | 2.05 | > 50 µM | 1.05 | 4.19 µM | 1.88 µM | 8.28 µM | 1.73 | 8.78 µM
21 | COc1cccc2c1C(=O)c1c(O)c3c(c(O)c1C2=O)C[C@](O)(C(=O)CO)C[C@H]3O[C@@H]1C[C@@H](NC(=O)CCCN(C)C2(c3ccc(F)cc3)CC3CCC2C3)[C@H](O)[C@@H](C)O1 (stereo partly drawn) | 0.913 | 2.36 µM | 0.946 | 2.23 µM | 0.771 | 1.54 µM | 1.09 | 9.89 µM | 0.826 | 1.55 µM | 0.311 | 1.52 µM | 7.59 | 16.4 µM | 0.971 | 2.25 µM | 0.881 µM | 1.92 µM | 7.16 | 14.5 µM
22 | CCOC(=O)Cc1csc(NC(=O)C(OC(=O)c2ccc(Cl)cc2)c2ccccc2)n1 (stereo not drawn) | 64.8 | > 100 µM | 17.1 | 46.6 µM | 31.7 | > 100 µM | 26.1 | 95.1 µM | 50.9 | > 100 µM | 13.4 | 58.7 µM | > 100 | > 100 µM | 51.6 | > 100 µM | 27 µM | 88 µM | 61.9 | > 100 µM
